US9468212B2, “Antifungal compositions” (DSM IP ASSETS B.V., priority 2013, dated 2016)
Values joined by “and” are separate entries in the source; they are usually repeats but may differ in a detail not shown here. Identical values can stand only once.

How the values were obtained:
[1] = test system: Botrytis cinerea; assay: Treatment of sweet peppers: wounded, inoculated with Botrytis cinerea, wound treated with antifungal composition (Example 10); type: in vivo; settings: 400 ppm natamycin, 600 ppm fenpiclonil or both, 20° C.
Method: Ten fresh, organic sweet peppers were used per treatment. The peel of each sweet pepper was wounded once using a cork borer according to the method described by de Lapeyre de Bellaire and Dubois (1987). Subsequently, each wound was inoculated with 10 μl of a Botrytis cinerea suspension containing 1×10^5 of spores/ml. After incubation for 3 hours at 20° C., each wound and the skin area of 0.5 cm around the wound was treated with in total 75 μl of a freshly prepared aqueous antifungal composition comprising either 400 ppm natamycin (DSM Food Specialties, Delft, The Netherlands), 600 ppm fenpiclonil or both. Each antifungal composition also comprised 3.2% (w/w) beeswax, 0.8% (w/w) glycerol, 0.7% (w/w) polyoxyethylene sorbitan monostearate (Tween 60), 0.2% (w/w) polyoxyethylene sorbitan monooleate (Tween 80), 0.05% (w/w) methylhydroxyethyl-cellulose (MHEC), 0.03% (w/w) anti-foaming agent, 0.02% (w/w) xanthan gum, 0.02% (w/w) citric acid, 0.01% (w/w) lactic acid and 0.01% potassium sorbate. A composition without natamycin or fenpiclonil was used as control.
The treated sweet peppers were incubated in a closed box in the dark at 20° C. and assessed on mould growth during incubation. The antifungal activity (in %) of the individual and combined active ingredients was determined by calculating the reduction in mould growth observed on the sweet peppers treated with the antifungal composition in comparison to the mould growth on the sweet peppers treated with the control composition according to the Colby method (Colby, 1967) as described in Example 5.

[2] = test system: Penicillium italicum; assay: Treatment of oranges: wounded, inoculated with Penicillium italicum, wound treated with antifungal composition (Examples 7-9); type: in vivo; settings: 500 ppm natamycin, 400 ppm fenpiclonil or both, oranges, 20° C.
Method: The expected antifungal activity (E in %) of the combined antifungal composition comprising both active ingredients was calculated according to the Colby equation (Colby, 1967): E=X+Y−[(X·Y)/100] wherein X and Y are the observed antifungal activities (in %) of the individual active ingredients X and Y, respectively.
Eight fresh, organic oranges were used per treatment. Each orange was soaked in a 180 ppm hypochlorite solution for 10 minutes, then rinsed thoroughly with fresh tap water and dried. The peel of each disinfected orange was wounded once using a cork borer according to the method described by de Lapeyre de Bellaire and Dubois (1987). Subsequently, each wound was inoculated with 10 μl of a Penicillium italicum suspension containing 5×10^5 of spores/ml. After incubation for 3 hours at 20° C., each wound and the orange peel area of 1 cm around the wound was treated with in total […] of a freshly prepared aqueous antifungal composition comprising either 500 ppm natamycin (DSM Food Specialties, Delft, The Netherlands), 300 ppm fludioxonil or both. Each antifungal composition also comprised 3.2% (w/w) beeswax, 0.8% (w/w) glycerol, 0.7% (w/w) polyoxyethylene sorbitan monostearate (Tween 60), 0.1% (w/w) polyoxyethylene sorbitan monooleate (Tween 80), 0.05% (w/w) methylhydroxyethyl-cellulose (MHEC), 0.03% (w/w) anti-foaming agent, 0.02% (w/w) xanthan gum, 0.02% (w/w) citric acid, 0.01% (w/w) lactic acid and 0.01% potassium sorbate. A composition without natamycin or fludioxonil was used as control.
The treated oranges were incubated in a closed box in the dark at 20° C. and assessed on mould growth during a 27-day incubation period.
(§1) The experiment was conducted as described in Example 7, except for the fact that each wounded and inoculated orange was treated with 150 μl of a freshly prepared aqueous antifungal composition comprising either 250 ppm natamycin (DSM Food Specialties, Delft, The Netherlands), 100 ppm fludioxonil or both. During incubation, the treated oranges were assessed on mould growth according to the two methods described in Example 5.
as §1, with “500” for “250”, “400” for “100”, “fenpiclonil” for “fludioxonil”, “a 23-day incubation period,” for “incubation,”

`N#Cc1c[nH]cc1-c1cccc(Cl)c1Cl` [Fenpiclonil, fenpiclonil] was tested. Which “Observed antifungal activity O (%)” value ([1]; 47 days) did it give?
Its value is 0%.

What about the “Observed antifungal activity O (%)” value ([1]; 48 days) of the same compound?
The value was 0%.

And the “Observed antifungal activity O (%)” value ([1]; 49 days)?
Its value is 0%.

What about the “Observed antifungal activity O (%)” value ([1]; 50 days) of the same compound?
The value was 0%.

What about the “Observed antifungal activity O (%)” value ([2]; 22-23 days) of the same compound?
The value was 0%.

And the “Observed antifungal activity O (%)” value ([2]; 12 days)?
Its value is 78%.

And the “Observed antifungal activity O (%)” value ([2]; 13 days)?
The value was 70%.

What about the “Observed antifungal activity O (%)” value ([2]; 14 days) of the same compound?
Its value is 66%.

What about the “Observed antifungal activity O (%)” value ([2]; 15 days) of the same compound?
Its value is 59%.

And the “Observed antifungal activity O (%)” value ([2]; 16 days)?
Its value is 47%.

What about the “Observed antifungal activity O (%)” value ([2]; 18 days) of the same compound?
Its value is 28%.

And the “Observed antifungal activity O (%)” value ([2]; 19 days)?
The value was 17%.

And the “Observed antifungal activity O (%)” value ([2]; 20 days)?
Its value is 6%.

And the “Observed antifungal activity O (%)” value ([2]; 21 days)?
Its value is 3%.

What about the “Number of moulded oranges/total number of 8 oranges” value ([2]; Day 14-15) of the same compound?
Its value is 6 and 6/8.

What about the “Number of moulded oranges/total number of 8 oranges” value ([2]; Day 16) of the same compound?
Its value is 8 and 8/8.

What about the “Number of moulded oranges/total number of 8 oranges” value ([2]; Day 18) of the same compound?
The value was 8 and 8/8.

What about the “Number of moulded oranges/total number of 8 oranges” value ([2]; Day 19-23) of the same compound?
Its value is 8 and 8/8.
